Assay results from US20240365781A1, “SYNERGISTICALLY EFFECTIVE HERBICIDE COMPOSITION COMPRISING PELARGONIC ACID AND FLAZASULFURON” (Belchim Crop Protection NV, priority 2017, published 2024).

Tests used:
Assay type in all cases: in vivo
Bromus oxyodon = experiment: post-emergence field trial under rows of vines, 150-200 L water/ha (Examples 6-9); conditions: flazasulfuron 40 g/ha
Oxalis latifolia = experiment: as above; conditions: flazasulfuron 40 g/ha
Digitaria sanguinalis = experiment: as above; conditions: flazasulfuron 40 g/ha
[1] = tested on: Digitaria sanguinalis and Setaria pumila; experiment: as above; conditions: flazasulfuron 40 g/ha
Poa annua = experiment: post-emergence field trial under rows of apple trees, 150-200 L water/ha (Examples 10-12)
Procedure: (§1) Herbicidal activity was determined by performing a post-emergence test. […] The corresponding mixture was in the form of a spray solution. Besides, spray solutions of individual compositions comprising pelargonic acid or flazasulfuron were used.
(§2) The spray solution was applied on plants of unwanted vegetation present on fields where perennial crops were grown.
(§3) After 5 to 88 days after application of the spray solution, the degree of damage to the unwanted vegetation is rated in % of plants of unwanted vegetation that were killed. Tests were performed on test fields (field trials).

Trifolium repens = experiment: as above
Procedure: as §1, §2, §3

Taraxacum officinalis = experiment: as above
Procedure: as §1, §2, §3

Setaria viridis = experiment: as above
Procedure: as §1, §2, §3

Veronica persicae = experiment: as above
Procedure: as §1, §2, §3

Lolium multiflorum = experiment: as above
Procedure: as §1, §2, §3

Capsella bursa-pastoris = experiment: as above
Procedure: as §1, §2, §3

[2] = 7 d, pelargonic acid 10880 g/ha
[3] = 14 d, pelargonic acid 5440 g/ha
[4] = 14 d, pelargonic acid 6800 g/ha
[5] = 14 d, pelargonic acid 8160 g/ha
[6] = 14 d, pelargonic acid 10880 g/ha
[7] = 28 d, pelargonic acid 5440 g/ha
[8] = 28 d, pelargonic acid 6800 g/ha
[9] = 28 d, pelargonic acid 8160 g/ha
[10] = 28 d, pelargonic acid 10880 g/ha

CCCCCCCCC(=O)O [Pelargonic acid, nonanoic acid]
35%: herbicidal effect (Digitaria sanguinalis; 7 d, pelargonic acid 5440 g/ha) | herbicidal effect (%) (Setaria viridis; Setaria viridis/6 d, 8160 g of active compound/ha)
18%: herbicidal effect (Bromus oxyodon; [2]) | herbicidal effect (Bromus oxyodon; [10]) | herbicidal effect (%) (Capsella bursa-pastoris; Capsella bursa-pastoris/6 d, 5440 g of active compound/ha)
89%: herbicidal effect (Oxalis latifolia; [5])
76%: herbicidal effect (Oxalis latifolia; [3])
31%: herbicidal effect [1, 10]
13%: herbicidal effect (%) (Trifolium repens; Trifolium repens/16 d, 8160 g of active compound/ha) | herbicidal effect (%) (Setaria viridis; Setaria viridis/6 d, 5440 g of active compound/ha) | herbicidal effect (%) (Lolium multiflorum; Lolium multiflorum/5 d, 10880 g of active compound/ha)
58%: herbicidal effect (Oxalis latifolia; 7 d, pelargonic acid 8160 g/ha) | herbicidal effect (Digitaria sanguinalis; [4]) | herbicidal effect (%) (Poa annua; Poa annua/16 d, 8160 g of active compound/ha)
23%: herbicidal effect (Bromus oxyodon; [6]) | herbicidal effect (%) (Poa annua; Poa annua/6 d, 5440 g of active compound/ha) | herbicidal effect (%) (Trifolium repens; Trifolium repens/16 d, 10880 g of active compound/ha)
63%: herbicidal effect (Digitaria sanguinalis; 7 d, pelargonic acid 6800 g/ha)
48%: herbicidal effect (Digitaria sanguinalis; 7 d, pelargonic acid 8160 g/ha) | herbicidal effect (%) (Setaria viridis; Setaria viridis/16 d, 10880 g of active compound/ha) | herbicidal effect (%) (Veronica persicae; Veronica persicae/16 d, 8160 g of active compound/ha)
3%: herbicidal effect (%) (Lolium multiflorum; Lolium multiflorum/5 d, 5440 g of active compound/ha)
73%: herbicidal effect (Oxalis latifolia; [2]) | herbicidal effect (%) (Trifolium repens; Trifolium repens/7 d, 8160 g of active compound/ha) | herbicidal effect (%) (Veronica persicae; Veronica persicae/7 d, 10880 g of active compound/ha)
60%: herbicidal effect (%) (Poa annua; Poa annua/16 d, 10880 g of active compound/ha) | herbicidal effect (%) (Capsella bursa-pastoris; Capsella bursa-pastoris/30 d, 10880 g of active compound/ha)
15%: herbicidal effect (Bromus oxyodon; 7 d, pelargonic acid 8160 g/ha)
9%: herbicidal effect (%) (Trifolium repens; Trifolium repens/16 d, 5440 g of active compound/ha) | herbicidal effect (%) (Taraxacum officinalis; Taraxacum officinalis/18 d, 10880 g of active compound/ha)
70%: herbicidal effect [1, 2] | herbicidal effect (%) (Veronica persicae; Veronica persicae/7 d, 8160 g of active compound/ha)
65%: herbicidal effect (%) (Poa annua; Poa annua/30 d, 10880 g of active compound/ha)
5%: herbicidal effect (Digitaria sanguinalis; 27 d, pelargonic acid 10880 g/ha)
56%: herbicidal effect (%) (Veronica persicae; Veronica persicae/7 d, 5440 g of active compound/ha)
85%: herbicidal effect (Oxalis latifolia; [4])
10%: herbicidal effect (Bromus oxyodon; 7 d, pelargonic acid 5440 g/ha) | herbicidal effect (Digitaria sanguinalis; [3]) | herbicidal effect (Digitaria sanguinalis; 27 d, pelargonic acid 5440 g/ha)
19%: herbicidal effect ([1]; 7 d, pelargonic acid 6800 g/ha) | herbicidal effect [1, 5]
68%: herbicidal effect (Oxalis latifolia; [8]) | herbicidal effect ([1]; 7 d, pelargonic acid 8160 g/ha)
1%: herbicidal effect (%) (Poa annua; Poa annua/78 d, 10880 g of active compound/ha)
53%: herbicidal effect (%) (Poa annua; Poa annua/30 d, 5440 g of active compound/ha) | herbicidal effect (%) (Setaria viridis; Setaria viridis/30 d, 5440 g of active compound/ha) | herbicidal effect (%) (Setaria viridis; Setaria viridis/30 d, 8160 g of active compound/ha) | herbicidal effect (%) (Setaria viridis; Setaria viridis/30 d, 10880 g of active compound/ha) | herbicidal effect (%) (Capsella bursa-pastoris; Capsella bursa-pastoris/16 d, 5440 g of active compound/ha) | herbicidal effect (%) (Capsella bursa-pastoris; Capsella bursa-pastoris/30 d, 8160 g of active compound/ha)
59%: herbicidal effect (%) (Trifolium repens; Trifolium repens/7 d, 5440 g of active compound/ha)
0%: herbicidal effect (Digitaria sanguinalis; 56 d, pelargonic acid 5440 g/ha) | herbicidal effect (Digitaria sanguinalis; 56 d, pelargonic acid 8160 g/ha) | herbicidal effect (Digitaria sanguinalis; 56 d, pelargonic acid 10880 g/ha) | herbicidal effect [1, 7] | herbicidal effect [1, 8] | herbicidal effect [1, 9] | herbicidal effect ([1]; 65 d, pelargonic acid 5440 g/ha) | herbicidal effect ([1]; 65 d, pelargonic acid 8160 g/ha) | herbicidal effect ([1]; 65 d, pelargonic acid 10880 g/ha) | herbicidal effect (%) (Poa annua; Poa annua/57 d, 5440 g of active compound/ha) | herbicidal effect (%) (Poa annua; Poa annua/57 d, 8160 g of active compound/ha) | herbicidal effect (%) (Poa annua; Poa annua/57 d, 10880 g of active compound/ha) | herbicidal effect (%) (Poa annua; Poa annua/78 d, 5440 g of active compound/ha) | herbicidal effect (%) (Poa annua; Poa annua/78 d, 8160 g of active compound/ha) | herbicidal effect (%) (Trifolium repens; Trifolium repens/26 d, 5440 g of active compound/ha) | herbicidal effect (%) (Trifolium repens; Trifolium repens/26 d, 8160 g of active compound/ha) | herbicidal effect (%) (Trifolium repens; Trifolium repens/26 d, 10880 g of active compound/ha) | herbicidal effect (%) (Trifolium repens; Trifolium repens/59 d, 5440 g of active compound/ha) | herbicidal effect (%) (Trifolium repens; Trifolium repens/59 d, 8160 g of active compound/ha) | herbicidal effect (%) (Trifolium repens; Trifolium repens/59 d, 10880 g of active compound/ha) | herbicidal effect (%) (Taraxacum officinalis; Taraxacum officinalis/18 d, 5440 g of active compound/ha) | herbicidal effect (%) (Taraxacum officinalis; Taraxacum officinalis/18 d, 8160 g of active compound/ha) | herbicidal effect (%) (Taraxacum officinalis; Taraxacum officinalis/32 d, 5440 g of active compound/ha) | herbicidal effect (%) (Taraxacum officinalis; Taraxacum officinalis/32 d, 8160 g of active compound/ha) | herbicidal effect (%) (Taraxacum officinalis; Taraxacum officinalis/32 d, 10880 g of active compound/ha) | herbicidal effect (%) (Taraxacum officinalis; Taraxacum officinalis/61 d, 5440 g of active compound/ha) | herbicidal effect (%) (Taraxacum officinalis; Taraxacum officinalis/61 d, 8160 g of active compound/ha) | herbicidal effect (%) (Taraxacum officinalis; Taraxacum officinalis/61 d, 10880 g of active compound/ha) | herbicidal effect (%) (Taraxacum officinalis; Taraxacum officinalis/88 d, 5440 g of active compound/ha) | herbicidal effect (%) (Taraxacum officinalis; Taraxacum officinalis/88 d, 8160 g of active compound/ha) | herbicidal effect (%) (Taraxacum officinalis; Taraxacum officinalis/88 d, 10880 g of active compound/ha) | herbicidal effect (%) (Setaria viridis; Setaria viridis/57 d, 5440 g of active compound/ha) | herbicidal effect (%) (Setaria viridis; Setaria viridis/57 d, 8160 g of active compound/ha) | herbicidal effect (%) (Setaria viridis; Setaria viridis/57 d, 10880 g of active compound/ha) | herbicidal effect (%) (Setaria viridis; Setaria viridis/78 d, 5440 g of active compound/ha) | herbicidal effect (%) (Setaria viridis; Setaria viridis/78 d, 8160 g of active compound/ha) | herbicidal effect (%) (Setaria viridis; Setaria viridis/78 d, 10880 g of active compound/ha) | herbicidal effect (%) (Veronica persicae; Veronica persicae/26 d, 5440 g of active compound/ha) | herbicidal effect (%) (Veronica persicae; Veronica persicae/26 d, 8160 g of active compound/ha) | herbicidal effect (%) (Veronica persicae; Veronica persicae/26 d, 10880 g of active compound/ha) | herbicidal effect (%) (Veronica persicae; Veronica persicae/59 d, 5440 g of active compound/ha) | herbicidal effect (%) (Veronica persicae; Veronica persicae/59 d, 8160 g of active compound/ha) | herbicidal effect (%) (Veronica persicae; Veronica persicae/59 d, 10880 g of active compound/ha) | herbicidal effect (%) (Lolium multiflorum; Lolium multiflorum/18 d, 5440 g of active compound/ha) | herbicidal effect (%) (Lolium multiflorum; Lolium multiflorum/18 d, 8160 g of active compound/ha) | herbicidal effect (%) (Lolium multiflorum; Lolium multiflorum/18 d, 10880 g of active compound/ha) | herbicidal effect (%) (Lolium multiflorum; Lolium multiflorum/32 d, 5440 g of active compound/ha) | herbicidal effect (%) (Lolium multiflorum; Lolium multiflorum/32 d, 8160 g of active compound/ha) | herbicidal effect (%) (Lolium multiflorum; Lolium multiflorum/32 d, 10880 g of active compound/ha) | herbicidal effect (%) (Lolium multiflorum; Lolium multiflorum/61 d, 5440 g of active compound/ha) | herbicidal effect (%) (Lolium multiflorum; Lolium multiflorum/61 d, 8160 g of active compound/ha) | herbicidal effect (%) (Lolium multiflorum; Lolium multiflorum/61 d, 10880 g of active compound/ha) | herbicidal effect (%) (Lolium multiflorum; Lolium multiflorum/88 d, 5440 g of active compound/ha) | herbicidal effect (%) (Lolium multiflorum; Lolium multiflorum/88 d, 8160 g of active compound/ha) | herbicidal effect (%) (Lolium multiflorum; Lolium multiflorum/88 d, 10880 g of active compound/ha) | herbicidal effect (%) (Capsella bursa-pastoris; Capsella bursa-pastoris/57 d, 5440 g of active compound/ha) | herbicidal effect (%) (Capsella bursa-pastoris; Capsella bursa-pastoris/57 d, 8160 g of active compound/ha) | herbicidal effect (%) (Capsella bursa-pastoris; Capsella bursa-pastoris/57 d, 10880 g of active compound/ha)
43%: herbicidal effect (Digitaria sanguinalis; [5]) | herbicidal effect (%) (Setaria viridis; Setaria viridis/16 d, 5440 g of active compound/ha)
45%: herbicidal effect (%) (Poa annua; Poa annua/6 d, 10880 g of active compound/ha) | herbicidal effect (%) (Setaria viridis; Setaria viridis/16 d, 8160 g of active compound/ha) | herbicidal effect (%) (Veronica persicae; Veronica persicae/16 d, 10880 g of active compound/ha) | herbicidal effect (%) (Capsella bursa-pastoris; Capsella bursa-pastoris/6 d, 8160 g of active compound/ha) | herbicidal effect (%) (Capsella bursa-pastoris; Capsella bursa-pastoris/6 d, 10880 g of active compound/ha)
11%: herbicidal effect (Bromus oxyodon; 7 d, pelargonic acid 6800 g/ha) | herbicidal effect (Bromus oxyodon; [3]) | herbicidal effect (Bromus oxyodon; [8]) | herbicidal effect (%) (Taraxacum officinalis; Taraxacum officinalis/5 d, 5440 g of active compound/ha)
30%: herbicidal effect (%) (Veronica persicae; Veronica persicae/16 d, 5440 g of active compound/ha)
8%: herbicidal effect (Bromus oxyodon; [7]) | herbicidal effect (Digitaria sanguinalis; 56 d, pelargonic acid 6800 g/ha)
75%: herbicidal effect (%) (Trifolium repens; Trifolium repens/7 d, 10880 g of active compound/ha)
40%: herbicidal effect (%) (Poa annua; Poa annua/6 d, 8160 g of active compound/ha) | herbicidal effect (%) (Setaria viridis; Setaria viridis/6 d, 10880 g of active compound/ha) | herbicidal effect (%) (Capsella bursa-pastoris; Capsella bursa-pastoris/16 d, 8160 g of active compound/ha)
16%: herbicidal effect (Bromus oxyodon; [4]) | herbicidal effect (Bromus oxyodon; [9])
26%: herbicidal effect (Digitaria sanguinalis; 27 d, pelargonic acid 8160 g/ha)
97%: herbicidal effect ([1]; 7 d, pelargonic acid 5440 g/ha)
55%: herbicidal effect (%) (Poa annua; Poa annua/16 d, 5440 g of active compound/ha) | herbicidal effect (%) (Poa annua; Poa annua/30 d, 8160 g of active compound/ha) | herbicidal effect (%) (Capsella bursa-pastoris; Capsella bursa-pastoris/16 d, 10880 g of active compound/ha) | herbicidal effect (%) (Capsella bursa-pastoris; Capsella bursa-pastoris/30 d, 5440 g of active compound/ha)
20%: herbicidal effect (Bromus oxyodon; [5]) | herbicidal effect (Digitaria sanguinalis; 27 d, pelargonic acid 6800 g/ha)
38%: herbicidal effect [1, 6]
49%: herbicidal effect (Digitaria sanguinalis; [6])
54%: herbicidal effect (Oxalis latifolia; 7 d, pelargonic acid 6800 g/ha) | herbicidal effect (Digitaria sanguinalis; [2])
25%: herbicidal effect [1, 3]
96%: herbicidal effect (Oxalis latifolia; [6])
